Data taken from PMC7673538 (PLoS Biology, 2020).
Like-named read-outs stand apart in the source and are kept apart here.

Assays:
in vitro = conditions: human
CV-B3 = assay: microbe, parasite or virus in culture; assay type: cell-based, coxsackievirus B3; conditions: for EC50: Enterovirus B
human DAT = target: T1, human DAT (Homo sapiens, UniProt Q01959); assay type: cell-based
T1 construct: expressed in transfected cells; host or cells: HEK293 (gift of Dr. Hoener, F. Hoffmann-La Roche)

[1] = CVB3, HeLa R19, read-out: CV-B3 EC50 Average
[2] = CVB3, HeLa R19, read-out: CV-B3 Exp 1 EC50
[3] = CVB3, HeLa R19, read-out: CV-B3 Exp2 EC50

T1 sequence (Q01959 whole entry): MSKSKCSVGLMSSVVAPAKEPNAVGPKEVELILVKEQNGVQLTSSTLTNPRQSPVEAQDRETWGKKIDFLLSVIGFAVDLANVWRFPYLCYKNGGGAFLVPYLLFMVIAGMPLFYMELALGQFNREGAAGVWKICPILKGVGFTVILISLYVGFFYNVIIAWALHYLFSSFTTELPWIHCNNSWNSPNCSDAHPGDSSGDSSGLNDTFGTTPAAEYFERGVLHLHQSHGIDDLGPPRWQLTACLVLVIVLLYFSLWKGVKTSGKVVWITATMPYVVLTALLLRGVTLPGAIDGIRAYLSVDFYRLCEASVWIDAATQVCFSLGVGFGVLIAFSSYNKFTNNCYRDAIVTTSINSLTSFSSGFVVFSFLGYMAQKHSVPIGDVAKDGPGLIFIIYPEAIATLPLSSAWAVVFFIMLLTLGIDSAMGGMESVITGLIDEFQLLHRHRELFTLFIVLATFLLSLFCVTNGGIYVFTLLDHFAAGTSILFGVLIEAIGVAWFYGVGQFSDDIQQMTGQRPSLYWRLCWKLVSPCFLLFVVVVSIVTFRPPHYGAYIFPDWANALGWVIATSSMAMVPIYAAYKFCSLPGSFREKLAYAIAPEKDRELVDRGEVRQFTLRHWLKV

Row | SMILES | CC50 (in vitro; CC50) | CC50 (in vitro; CC50 Average) | CC50 (in vitro; Exp 1 CC50) | CC50 (in vitro; Exp2 CC50) | antiviral activity against CV-B3 (in words) (CV-B3) | EC50 (CV-B3; CVB3, HeLa R19) | EC50 (CV-B3; [1]) | EC50 (CV-B3; [2]) | EC50 (CV-B3; [3]) | inhibition of DAT function (in words) (human DAT)
1 | CNCC(=O)N(Cc1ccc(F)cc1)c1ccc(OC)cc1 [Compound 6, N-(4-fluorobenzyl)-N-(4-methoxyphenyl)-2-(methylamino)acetamide] | > 30 µM | > 30 µM | > 30 µM | > 30 µM | loss of antiviral activity | > 30 µM | > 30 µM | > 30 µM | > 30 µM | –
2 | COc1ccc(N(Cc2ccc(F)cc2)S(=O)(=O)c2ccco2)cc1 [Compound 5b, N-(4-fluorobenzyl)-N-(4-methoxyphenyl)furan-2-sulfonamide] | > 30 µM | > 30 µM | > 30 µM | > 30 µM | loss of antiviral activity | > 30 µM | > 30 µM | > 30 µM | > 30 µM | –
3 | COc1ccc(N(Cc2ccc(F)cc2)Cc2ccco2)cc1 [Compound 5g, N-(4-fluorobenzyl)-N-(furan-2-ylmethyl)-4-methoxyaniline] | > 30 µM | > 30 µM | > 30 µM | > 30 µM | loss of antiviral activity | > 30 µM | > 30 µM | > 30 µM | > 30 µM | –
4 | COc1ccc(N(Cc2ccc(F)cc2)C(=O)C2CCCO2)cc1 (stereo not shown) [Compound 5f, N-(4-Fluorobenzyl)-N-(4-methoxyphenyl)tetrahydrofuran-2-carboxamide] | > 30 µM | > 30 µM | > 30 µM | > 30 µM | loss of antiviral activity | > 30 µM | > 30 µM | > 30 µM | > 30 µM | –
5 | CNCCC(Oc1ccc(C(F)(F)F)cc1)c1ccccc1 (stereo not shown) [fluoxetine, reference compound] | – | – | – | – | – | – | – | – | – | promiscuously inhibited also the DAT and NET activity at 100 μM
6 | COc1ccc(N(Cc2ccc(F)cc2)C(C)=O)cc1 [Compound 5a, N-(4-fluorobenzyl)-N-(4-methoxyphenyl)acetamide] | > 30 µM | > 30 µM | > 30 µM | > 30 µM | loss of antiviral activity | > 30 µM | > 30 µM | > 30 µM | > 30 µM | –
